Reference: patent US12564582B2 (Prilenia Neurotherapeutics Ltd., priority 2016, dated 2026)
Like-named read-outs stand apart in the source and are kept apart here.

Tested on: patients with Huntington's disease
Method: The study also compared data from all patients to those obtained in HD subpopulations.
The primary efficacy variable and endpoint for this study was change from baseline in the UHDRS TMS (defined as the sum of all UHDRS motor domains ratings) at Week 26 or Week 52. The primary measure of motor impairment is the UHDRS motor assessment section, which was administered by a trained examiner. The first part of the motor assessment consisted of five TMS subscores, provided below. The sum total of all the 31 items is referred to as the Total Motor Score (TMS). The secondary efficacy variable and endpoint was change from baseline in the mPPT at Week 26 or Week 52. The TMS scale includes measurement of dystonia.
It is a research tool which has been developed to provide a uniform assessment of the clinical features and course of HD. The TMS component of UHDRS comprises 31 assessments from the 15 items of the UHDRS, with each assessment rated on a 5-point scale from 0 (normal) to 4 (maximally abnormal).
The change from baseline in UHDRS-TMS was analyzed using a Repeated Measures model (SAS® MIXED procedure with REPEATED sub-command). The model includes the following fixed effects: categorical week in study by treatment interaction, center, neuroleptic use or no use, and baseline UHDRS-TMS score. The unstructured covariance matrix for repeated observations within patients was used.

With `CCCN1CCC(c2cccc(S(C)(=O)=O)c2)CC1` [pridopidine, 4-[3-(methylsulfonyl)phenyl]-1-propyl-piperidine] the “UHDRS-TMS change from baseline over time” value (45 mg bid, HD1 patients, after 52 weeks) was “improvement in TMS score”, the “Δ to placebo, change from baseline in UHDRS TMS” value (45 mg bid, Week 26, ALL) was 1.42 and the “Δ to placebo, change from baseline in UHDRS TMS” value (45 mg bid, Week 26, Stage 1 BL TFC 11-13) was −4.47. For the same molecule, the “Δ to placebo, change from baseline in UHDRS TMS” value (45 mg bid, Week 52, ALL) was 0.59, the “Wk 52 Δ to placebo, change from baseline in UHDRS TMS” value (“Wk 52 Δ to placebo, change” for short) (45 mg bid, Week 52, Stage 1 BL TFC 11-13) was −5.32 and the “TMS change from baseline vs historical placebo” value (45 mg bid, historical placebo in HART and MermaiHD) was “significant”. For the same molecule, the “Δ to placebo, change from baseline in UHDRS TMS” value (67.5 mg bid, Week 26, ALL) was 1.71, the “Δ to placebo, change from baseline in UHDRS TMS” value (67.5 mg bid, Week 26, Stage 1 BL TFC 11-13) was −3 and the “Δ to placebo, change from baseline in UHDRS TMS” value (67.5 mg bid, Week 52, ALL) was 2.55. The “Wk 52 Δ to placebo, change” value (67.5 mg bid, Week 52, Stage 1 BL TFC 11-13) was −0.84, the “Δ to placebo, change from baseline in UHDRS TMS” value (90 mg bid, Week 26, ALL) was 0.67 and the “UHDRS TMS score at week 26 compared to baseline” value (90 mg bid, Week 26, BL TFC 11-13, read from FIG. 8b) was “about −8”. The “Δ to placebo, change from baseline in UHDRS TMS” value (90 mg bid, Week 26, Stage 1 BL TFC 11-13) was −6.15, the “Δ to placebo, change from baseline in UHDRS TMS” value (90 mg bid, Week 52, ALL) was 1.78 and the “Wk 52 Δ to placebo, change” value (90 mg bid, Week 52, Stage 1 BL TFC 11-13) was −7.1. For the same molecule, the “Total Motor Score (TMS) change from baseline, treatment effect” value (90 mg bid, compared with other doses) was “largest treatment effect”, the “TMS change from baseline vs historical placebo” value (90 mg bid, historical placebo in HART and MermaiHD) was “significant” and the “Total Motor Score (TMS) change from baseline, difference vs historical placebo” value (90 mg bid, week 26, historical placebo in HART and MermaiHD) was about 6.5 TMS point. For the same molecule, the “Δ to placebo, change from baseline in UHDRS TMS” value (112.5 mg bid, Week 26, ALL) was 2.1, the “Δ to placebo, change from baseline in UHDRS TMS” value (112.5 mg bid, Week 26, Stage 1 BL TFC 11-13) was −4.79 and the “Δ to placebo, change from baseline in UHDRS TMS” value (112.5 mg bid, Week 52, ALL) was 2.71. For the same molecule, the “Wk 52 Δ to placebo, change” value (112.5 mg bid, Week 52, Stage 1 BL TFC 11-13) was −0.92.
